From ChEMBL document CHEMBL1150338, “Prediction and identification of drug interactions with the human ATP-binding cassette transporter multidrug-resistance associated protein 2 (MRP2; ABCC2)” (J Med Chem, 2008) come the findings set out here.

Structures can show the parent of a compound that is named as a salt.

The target of the data set is MRP2 (ABCC2) (Homo sapiens, UniProt Q92887). Put plainly: in vitro.
The mark [1] stands for this setting: probe estradiol-17-beta-glucuronide.
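Also: Inside-out membrane vesicles from Sf9 insect cells expressing human MRP2, measuring uptake of the estradiol glucuronide substrate, expressed as percent of untreated control.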

Chain of MRP2 (ABCC2) (Q92887 whole entry): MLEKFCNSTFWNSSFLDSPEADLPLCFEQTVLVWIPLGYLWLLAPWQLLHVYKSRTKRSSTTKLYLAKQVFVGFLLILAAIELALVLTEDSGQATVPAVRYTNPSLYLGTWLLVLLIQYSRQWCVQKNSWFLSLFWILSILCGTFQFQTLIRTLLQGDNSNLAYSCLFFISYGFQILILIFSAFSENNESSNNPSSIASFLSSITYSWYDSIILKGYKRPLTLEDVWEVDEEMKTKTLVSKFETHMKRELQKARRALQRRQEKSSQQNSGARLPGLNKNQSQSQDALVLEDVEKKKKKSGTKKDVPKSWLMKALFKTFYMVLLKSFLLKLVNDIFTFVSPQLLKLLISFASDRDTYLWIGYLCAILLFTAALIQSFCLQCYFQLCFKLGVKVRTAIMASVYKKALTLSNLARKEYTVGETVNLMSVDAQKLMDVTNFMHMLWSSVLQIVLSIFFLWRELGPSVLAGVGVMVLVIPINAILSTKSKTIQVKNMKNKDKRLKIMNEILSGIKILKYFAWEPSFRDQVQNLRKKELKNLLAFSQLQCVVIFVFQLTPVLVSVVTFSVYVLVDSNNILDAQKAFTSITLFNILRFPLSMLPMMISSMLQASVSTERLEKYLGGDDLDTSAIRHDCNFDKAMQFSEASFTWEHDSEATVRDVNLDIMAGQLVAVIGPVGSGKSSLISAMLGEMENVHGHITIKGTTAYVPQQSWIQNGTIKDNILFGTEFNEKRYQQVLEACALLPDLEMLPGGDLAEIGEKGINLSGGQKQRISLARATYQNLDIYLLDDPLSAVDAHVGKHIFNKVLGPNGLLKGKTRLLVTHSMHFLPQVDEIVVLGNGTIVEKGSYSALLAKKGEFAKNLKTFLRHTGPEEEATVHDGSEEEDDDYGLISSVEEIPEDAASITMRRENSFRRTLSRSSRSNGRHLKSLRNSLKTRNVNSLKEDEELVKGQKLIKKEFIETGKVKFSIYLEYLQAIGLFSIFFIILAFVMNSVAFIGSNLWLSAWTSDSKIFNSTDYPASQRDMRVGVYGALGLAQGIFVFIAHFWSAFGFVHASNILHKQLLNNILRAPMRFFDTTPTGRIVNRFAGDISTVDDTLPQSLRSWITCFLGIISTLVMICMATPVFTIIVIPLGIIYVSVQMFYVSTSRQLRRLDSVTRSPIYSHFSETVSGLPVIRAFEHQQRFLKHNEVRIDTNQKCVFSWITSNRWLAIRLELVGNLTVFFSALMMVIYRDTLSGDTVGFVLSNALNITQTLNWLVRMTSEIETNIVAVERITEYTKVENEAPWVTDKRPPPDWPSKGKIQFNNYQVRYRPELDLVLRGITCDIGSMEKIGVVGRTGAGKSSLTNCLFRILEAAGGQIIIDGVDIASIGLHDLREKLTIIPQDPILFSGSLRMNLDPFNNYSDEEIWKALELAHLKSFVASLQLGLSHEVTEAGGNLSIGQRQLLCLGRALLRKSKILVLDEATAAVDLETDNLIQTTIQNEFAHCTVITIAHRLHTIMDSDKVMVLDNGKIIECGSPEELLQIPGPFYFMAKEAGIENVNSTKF
Description: Effect on human MRP2-mediated estradiol-17-beta-glucuronide transport in Sf9 cells inverted membrane vesicles relative to control

`O=C1OC2(c3ccc(O)cc3Oc3cc(O)ccc32)c2ccccc21` [FLUORESCEIN]: the activity under setting [1] turned out to be 82%.
Consider `CC(C(=O)O)c1ccc(-c2ccccc2)c(F)c1` (centres undefined) [FLURBIPROFEN], for which the activity under setting [1] is 108%.
In the case of `CC(C)C(=O)Nc1ccc([N+](=O)[O-])c(C(F)(F)F)c1` [FLUTAMIDE], the activity under setting [1] was determined as 126%.
Regarding `NS(=O)(=O)c1cc(C(=O)O)c(NCc2ccco2)cc1Cl` [FUROSEMIDE], the activity under setting [1] came to 118%.
Take `CC(=O)O[C@H]1C[C@@]2(C)[C@@H](C[C@@H](O)[C@H]3[C@@]4(C)CC[C@@H](O)[C@@H](C)[C@@H]4CC[C@@]32C)/C1=C(\CCC=C(C)C)C(=O)O` [FUSIDIC ACID]: the activity under setting [1] came to 72%.
`COc1cc2ncnc(Nc3ccc(F)c(Cl)c3)c2cc1OCCCN1CCOCC1` [GEFITINIB]: the activity (sf9) stood at 74%.
In the case of `O=c1c(-c2ccc(O)cc2)coc2cc(O)cc(O)c12` [GENISTEIN], the activity under setting [1] is 101%.
For the molecule `Cc1ccc(S(=O)(=O)NC(=O)NN2CC3CCCC3C2)cc1` (centres undefined) [GLICLAZIDE], under setting [1], the activity was 174%.
As to `CCC1=C(C)CN(C(=O)NCCc2ccc(S(=O)(=O)NC(=O)N[C@H]3CC[C@H](C)CC3)cc2)C1=O` [GLIMEPIRIDE], under setting [1], the activity came out at 142%.
Regarding `Cc1cnc(C(=O)NCCc2ccc(S(=O)(=O)NC(=O)NC3CCCCC3)cc2)cn1` [GLIPIZIDE], under setting [1], the activity stood at 81%.
Consider `N[C@@H](CCC(=O)N[C@@H](CS)C(=O)NCC(=O)O)C(=O)O` [GLUTATHIONE], for which the activity (sf9) came to 116%.
As to `COc1ccc(Cl)cc1C(=O)NCCc1ccc(S(=O)(=O)NC(=O)NC2CCCCC2)cc1` [GLYBURIDE], the activity under setting [1] came out at 304%.
Consider `CC1(C)[C@@H](O[C@H]2O[C@H](C(=O)O)[C@@H](O)[C@H](O)[C@H]2O[C@@H]2O[C@H](C(=O)O)[C@@H](O)[C@H](O)[C@H]2O)CC[C@]2(C)[C@H]3C(=O)C=C4[C@@H]5C[C@@](C)(C(=O)O)CC[C@]5(C)CC[C@@]4(C)[C@]3(C)CC[C@@H]12` [GLYCYRRHIZIN], for which the activity under setting [1] turned out to be 5%.
In the case of `O=C(CCCN1CCC(O)(c2ccc(Cl)cc2)CC1)c1ccc(F)cc1` [HALOPERIDOL], under setting [1], the activity is 106%.
Take `NS(=O)(=O)c1cc2c(cc1Cl)NCNS2(=O)=O` [HYDROCHLOROTHIAZIDE]: the activity under setting [1] was 94%.
`C[C@]12CCC(=O)C=C1CC[C@@H]1[C@@H]2[C@@H](O)C[C@@]2(C)[C@H]1CC[C@]2(O)C(=O)CO` [HYDROCORTISONE]: under setting [1], the activity was 124%.
With `CC(C)Cc1ccc(C(C)C(=O)O)cc1` (centres undefined) [IBUPROFEN], the activity under setting [1] is 130%.
Regarding `Cc1ccc(NC(=O)c2ccc(CN3CCN(C)CC3)cc2)cc1Nc1nccc(-c2cccnc2)n1` [IMATINIB MESYLATE], the activity under setting [1] came to 74%.
In the case of `CC1(C)C(/C=C/C=C/C=C/C=C2\N(CCCCS(=O)(=O)O)c3ccc4ccccc4c3C2(C)C)=[N+](CCCCS(=O)(=O)[O-])c2ccc3ccccc3c21` [INDOCYANINE GREEN], under setting [1], the activity was found to be 5%.
Regarding `COc1ccc2c(c1)c(CC(=O)O)c(C)n2C(=O)c1ccc(Cl)cc1` [INDOMETHACIN], under setting [1], the activity was determined as 308%.
The same measure, in the same setting: the value for `CCc1c2c(nc3ccc(OC(=O)N4CCC(N5CCCCC5)CC4)cc13)-c1cc3c(c(=O)n1C2)COC(=O)[C@]3(O)CC` [IRINOTECAN] was 101%.
Regarding `NNC(=O)c1ccncc1` [ISONIAZID], under setting [1], the activity turned out to be 96%.
Same read-out and setting: under `COC(=O)C1=C(C)NC(C)=C(C(=O)OC(C)C)C1c1cccc2nonc12` (centres undefined) [ISRADIPINE] stands 46%; under `CC(=O)N1CCN(c2ccc(OC[C@H]3CO[C@](Cn4ccnc4)(c4ccc(Cl)cc4Cl)O3)cc2)CC1` [KETOCONAZOLE], 76%; under `CC(C(=O)O)c1cccc(C(=O)c2ccccc2)c1` (centres undefined) [KETOPROFEN], 120%.
On the same count and under the same terms, under `Cc1c(OCC(F)(F)F)ccnc1C[S+]([O-])c1nc2ccccc2[nH]1` (centres undefined) [LANSOPRAZOLE] stands 34%; under `Nc1nc2c(c(=O)[nH]1)N(C=O)C(CNc1ccc(C(=O)N[C@@H](CCC(=O)O)C(=O)O)cc1)CN2` (some centres undefined) [LEUCOVORIN], 103%.
Consider `NCCCC[C@H](N[C@@H](CCc1ccccc1)C(=O)O)C(=O)N1CCC[C@H]1C(=O)O` [LISINOPRIL ANHYDROUS], for which the activity under setting [1] was found to be 43%.
Turning to `CN(C)C(=O)C(CCN1CCC(O)(c2ccc(Cl)cc2)CC1)(c1ccccc1)c1ccccc1` [LOPERAMIDE], the activity under setting [1] was determined as 46%.
`Cc1cccc(C)c1OCC(=O)N[C@@H](Cc1ccccc1)[C@@H](O)C[C@H](Cc1ccccc1)NC(=O)[C@H](C(C)C)N1CCCNC1=O` [LOPINAVIR]: the activity (sf9) is 33%.
Take `CCOC(=O)N1CCC(=C2c3ccc(Cl)cc3CCc3cccnc32)CC1` [LORATADINE]: under setting [1], the activity was found to be 6%.
As to `CNCCCC12CCC(c3ccccc31)c1ccccc12` [MAPROTILINE], the activity (sf9) was 56%.
For the molecule `Nc1ccc(O)c(C(=O)O)c1` [MESALAMINE], the activity under setting [1] is 109%.
In the case of `CN(Cc1cnc2nc(N)nc(N)c2n1)c1ccc(C(=O)N[C@@H](CCC(=O)O)C(=O)O)cc1` [METHOTREXATE], for the setting “sf9”, the activity is 130%.
In the case of `COCCc1ccc(OCC(O)CNC(C)C)cc1` (centres undefined) [METOPROLOL], the activity under setting [1] worked out at 72%.
For the molecule `CC#C[C@]1(O)CC[C@H]2[C@@H]3CCC4=CC(=O)CCC4=C3[C@@H](c3ccc(N(C)C)cc3)C[C@@]21C` [MIFEPRISTONE], under setting [1], the activity is 134%.
For `O=C1c2c(O)ccc(O)c2C(=O)c2c(NCCNCCO)ccc(NCCNCCO)c21` [MITOXANTRONE], under setting [1], the activity is 175%.
For `O=c1c(O)c(-c2ccc(O)cc2O)oc2cc(O)cc(O)c12` [MORIN], the activity under setting [1] is 50%.
Turning to `C[C@]12CC[C@H]3[C@@H](CCC4=CC(=O)CC[C@@H]43)[C@@H]1CC[C@@H]2O` [NANDROLONE], under setting [1], the activity was determined as 106%.
As for `COc1ccc2cc([C@H](C)C(=O)O)ccc2c1` [NAPROXEN], the activity (sf9) turned out to be 92%.
For the molecule `O=C1C[C@@H](c2ccc(O)cc2)Oc2cc(O)cc(O)c21` [NARINGENIN], under setting [1], the activity turned out to be 207%.
As to `Cc1ccnc2c1NC(=O)c1cccnc1N2C1CC1` [NEVIRAPINE], the activity under setting [1] stood at 121%.
As to `COC(=O)C1=C(C)NC(C)=C(C(=O)OCCN(C)Cc2ccccc2)C1c1cccc([N+](=O)[O-])c1` (centres undefined) [NICARDIPINE], the activity (sf9) was 59%.
`CN1CCC[C@H]1c1cccnc1` [NICOTINE]: the activity (sf9) was 101%.
On to `CNC(=O)c1cccnc1` [NICOTINYL METHYLAMIDE], for which the activity under setting [1] stood at 101%.
In the case of `CCOC(=O)C1=C(C)NC(C)=C(C(=O)OC)C1c1cccc([N+](=O)[O-])c1` (centres undefined) [NITRENDIPINE], the activity under setting [1] was found to be 224%.
Consider `O=C1CN(/N=C/c2ccc([N+](=O)[O-])o2)C(=O)N1` [NITROFURANTOIN], for which, for the setting “sf9”, the activity was 94%.
`CNC(=C[N+](=O)[O-])NCCSCc1csc(CN(C)C)n1` [NIZATIDINE]: the activity under setting [1] was found to be 110%.
Regarding `COc1ccc2c(c1OC)C(=O)O[C@@H]2[C@H]1c2c(cc3c(c2OC)OCO3)CCN1C` [NOSCAPINE], the activity under setting [1] came to 78%.
Consider `CC1COc2c(N3CCN(C)CC3)c(F)cc3c(=O)c(C(=O)O)cn1c23` (centres undefined) [OFLOXACIN], for which, under setting [1], the activity is 83%.
In the case of `COc1ccc2[nH]c([S+]([O-])Cc3ncc(C)c(OC)c3C)nc2c1` (centres undefined) [OMEPRAZOLE], under setting [1], the activity turned out to be 101%.
On the same count and under the same terms, the value for `O=C1Nc2ccc(Cl)cc2C(c2ccccc2)=NC1O` (centres undefined) [OXAZEPAM] was 103%.
Take `CC1(C)S[C@@H]2[C@H](NC(=O)Cc3ccccc3)C(=O)N2[C@H]1C(=O)O` [PENICILLIN G]: the activity under setting [1] amounted to 76%.
Turning to `CCOc1ccc(NC(C)=O)cc1` [PHENACETIN], the activity under setting [1] was 83%.
Consider `S=C=NCCc1ccccc1` [PHENETHYLISOTHIOCYANATE], for which the activity under setting [1] was 94%.
As for `[H]/N=C(/N)N/C(=N/[H])NCCc1ccccc1` [PHENFORMIN], the activity under setting [1] stood at 88%.
On to `CCC1(c2ccccc2)C(=O)NC(=O)NC1=O` [PHENOBARBITAL], for which the activity under setting [1] is 98%.
Regarding `O=C1NC(=O)C(c2ccccc2)(c2ccccc2)N1` [PHENYTOIN], the activity under setting [1] came out at 125%.
`CN1C(C(=O)Nc2ccccn2)=C(O)c2ccccc2S1(=O)=O` [PIROXICAM]: the activity under setting [1] is 100%.
On to `CCCCOc1ccc(OCCCN2CCOCC2)cc1` [PRAMOXINE], for which the activity under setting [1] was 69%.
Consider `C[C@]12CC[C@H](OS(=O)(=O)O)CC1=CC[C@@H]1[C@@H]2CC[C@]2(C)C(=O)CC[C@@H]12` [PRASTERONE SULFURIC ACID], for which, under setting [1], the activity was determined as 395%.
Take `CC[C@H](C)C(=O)O[C@H]1C[C@H](O)C=C2C=C[C@H](C)[C@H](CC[C@@H](O)C[C@@H](O)CC(=O)O)[C@H]21` [PRAVASTATIN]: under setting [1], the activity was 135%.
As to `COc1cc2nc(N3CCN(C(=O)c4ccco4)CC3)nc(N)c2cc1OC` [PRAZOSIN], the activity under setting [1] was 78%.
On the same count and under the same terms, under `C[C@]12C=CC(=O)C=C1CC[C@@H]1[C@@H]2[C@@H](O)C[C@@]2(C)[C@H]1CC[C@]2(O)C(=O)CO` [PREDNISOLONE] stands 110%; under `C[C@]12C=CC(=O)C=C1CC[C@@H]1[C@@H]2C(=O)C[C@@]2(C)[C@H]1CC[C@]2(O)C(=O)CO` [PREDNISONE], 51%.
The same measure, in the same setting: under `CCCN(CCC)S(=O)(=O)c1ccc(C(=O)O)cc1` [PROBENECID] stands 110%; under `O[C@](CCN1CCCC1)(c1ccccc1)C1CCCCC1` [PROCYCLIDINE], 62%.
Same read-out and setting: under `CC(=O)[C@H]1CC[C@H]2[C@@H]3CCC4=CC(=O)CC[C@]4(C)[C@H]3CC[C@]12C` [PROGESTERONE] stands 123%.
As for `CCCNCC(O)COc1ccccc1C(=O)CCc1ccccc1` (centres undefined) [PROPAFENONE], the activity (sf9) stood at 58%.
Consider `CC(C)NCC(O)COc1cccc2ccccc12` (centres undefined) [PROPRANOLOL], for which, under setting [1], the activity was 69%.
Same read-out and setting: the value for `O=c1c(O)c(-c2ccc(O)c(O)c2)oc2cc(O)cc(O)c12` [QUERCETIN] was 40%.
As for `C=C[C@H]1C[N@@]2CC[C@H]1C[C@@H]2[C@@H](O)c1ccnc2ccc(OC)cc12` [QUINIDINE], the activity under setting [1] worked out at 64%.
For the molecule `C=C[C@H]1C[N@@]2CC[C@H]1C[C@H]2[C@H](O)c1ccnc2ccc(OC)cc12` [QUININE], under setting [1], the activity is 75%.
For `CNC(=C[N+](=O)[O-])NCCSCc1ccc(CN(C)C)o1` [RANITIDINE], under setting [1], the activity came out at 52%.
